Measurements reported in the NIST ThermoML archive (doi:10.1016/j.jct.2008.08.007).

Assay: molar heat capacity at constant pressure
Details: 101.33 kPa, Crystal

O=CC[C@H](O)[C@H](O)CO [2-deoxy-D-erythropentose]
Small sample (50 mg) DSC
Details	molar heat capacity at constant pressure [J/K/mol]
288.15 K	171.9
293.15 K	167.6
298.15 K	162
303.15 K	163.6
308.15 K	171.7
313.15 K	178.4
318.15 K	184.1
323.15 K	197.4
328.15 K	222

O[C@@H]1[C@@H](O)[C@@H](O)OC[C@H]1O [xylopyranose, α-D-]
Vacuum adiabatic calorimetry
Details	molar heat capacity at constant pressure [J/K/mol]
288.15 K	178.3
293.15 K	180.9
298.15 K	180.4
303.15 K	182.8
308.15 K	185.7
313.15 K	185.8
318.15 K	187.3
323.15 K	190.4
328.15 K	192
333.15 K	192.6
338.15 K	195.7
343.15 K	200
348.15 K	204.6
353.15 K	209.4
358.15 K	213.8

O=C[C@H](O)[C@@H](O)[C@H](O[C@H]1O[C@H](CO)[C@@H](O[C@H]2O[C@H](CO)[C@@H](O)[C@H](O)[C@H]2O)[C@H](O)[C@H]1O)[C@H](O)CO [maltotriose]
Small sample (50 mg) DSC
Details	molar heat capacity at constant pressure [J/K/mol]
288.15 K	638.3
293.15 K	654
298.15 K	662.5
303.15 K	662.7
308.15 K	666.3
313.15 K	676.9
318.15 K	683.9
323.15 K	698.2
328.15 K	707.4
333.15 K	718.6
338.15 K	736.3
343.15 K	753.8
348.15 K	773.2
353.15 K	787.3
358.15 K	823.7

OC[C@H]1O[C@@H]2O[C@H]3[C@H](O)[C@@H](O)[C@@H](O[C@H]4[C@H](O)[C@@H](O)[C@@H](O[C@H]5[C@H](O)[C@@H](O)[C@@H](O[C@H]6[C@H](O)[C@@H](O)[C@@H](O[C@H]7[C@H](O)[C@@H](O)[C@@H](O[C@H]8[C@H](O)[C@@H](O)[C@@H](O[C@H]1[C@H](O)[C@H]2O)O[C@@H]8CO)O[C@@H]7CO)O[C@@H]6CO)O[C@@H]5CO)O[C@@H]4CO)O[C@@H]3CO [β-cyclodextrin]
Small sample (50 mg) DSC
Details	molar heat capacity at constant pressure [J/K/mol]
288.15 K	1253.4
293.15 K	1298.3
298.15 K	1341.3
303.15 K	1357.6
308.15 K	1401.3
313.15 K	1414.1
318.15 K	1434.7
323.15 K	1468.5
328.15 K	1495.7
333.15 K	1522.1
338.15 K	1557.1
343.15 K	1591.3
348.15 K	1634.4
353.15 K	1682.1
358.15 K	1752.1

OC[C@H]1O[C@@H](O[C@H]2[C@H](O)[C@@H](O)[C@H](O)O[C@@H]2CO)[C@H](O)[C@@H](O)[C@@H]1O [D-cellobiose]
Small sample (50 mg) DSC
Details	molar heat capacity at constant pressure [J/K/mol]
288.15 K	407.8
293.15 K	431
298.15 K	436.1
303.15 K	445
308.15 K	443.1
313.15 K	446.9
318.15 K	448.7
323.15 K	463.2
328.15 K	463.5
333.15 K	473.1
338.15 K	481.1
343.15 K	490.7
348.15 K	503.2
353.15 K	515.8
358.15 K	534.8

OC[C@H]1O[C@@H]2O[C@H]3[C@H](O)[C@@H](O)[C@@H](O[C@H]4[C@H](O)[C@@H](O)[C@@H](O[C@H]5[C@H](O)[C@@H](O)[C@@H](O[C@H]6[C@H](O)[C@@H](O)[C@@H](O[C@H]7[C@H](O)[C@@H](O)[C@@H](O[C@H]1[C@H](O)[C@H]2O)O[C@@H]7CO)O[C@@H]6CO)O[C@@H]5CO)O[C@@H]4CO)O[C@@H]3CO [α-cyclodextrin]
Small sample (50 mg) DSC
Details	molar heat capacity at constant pressure [J/K/mol]
288.15 K	1074.6
293.15 K	1113.2
298.15 K	1150
303.15 K	1164.1
308.15 K	1201.5
313.15 K	1212.6
318.15 K	1230.2
323.15 K	1259.3
328.15 K	1282.6
333.15 K	1305.3
338.15 K	1335.3
343.15 K	1364.6
348.15 K	1401.6
353.15 K	1442.6
358.15 K	1502.7

OC[C@H]1O[C@H](O)[C@H](O)[C@@H](O)[C@@H]1O [α-D-glucose]
Small sample (50 mg) DSC
Details	molar heat capacity at constant pressure [J/K/mol]
288.15 K	210.2
293.15 K	214.8
298.15 K	219.9
303.15 K	222.8
308.15 K	226.5
313.15 K	232.6
318.15 K	235.8
323.15 K	240.5
328.15 K	242.1
333.15 K	246.2
338.15 K	250.5
343.15 K	255.2
348.15 K	260.4
353.15 K	262.4
358.15 K	267.7

O.OC[C@H]1O[C@@H](O[C@H]2[C@H](O)[C@@H](O)[C@@H](O)O[C@@H]2CO)[C@H](O)[C@@H](O)[C@H]1O [α-D-lactose hydrate]
Small sample (50 mg) DSC
Details	molar heat capacity at constant pressure [J/K/mol]
288.15 K	400.9
293.15 K	426.9
298.15 K	435.8
303.15 K	440.7
308.15 K	446.4
313.15 K	450
318.15 K	452.2
323.15 K	459.8
328.15 K	464.5
333.15 K	468.3
338.15 K	477.1
343.15 K	488.2
348.15 K	497.7
353.15 K	506.8
358.15 K	522.7
